16 compounds from patent publication US9108999B2, “2′, 4′-difluoro-2′-methyl substituted nucleoside derivatives as inhibitors of HCV RNA replication” (priority 2011, dated 2015) can be followed below.

One series in a line: in vitro. The settings on record: human.
In series [1] the test system is genotype 1b replicon construct NK5.1 (HCV subgenomic RNA) in Huh7 cell line 2209-23. Nature of the series: microbe, parasite or virus in culture. It is filed as cell-based, Hepatitis C Virus. The settings on record: read-out: HCV Replicon IC50.
Series [2] has as its system HCV replicon cells (2209-23). Conditions: read-out: WST-1 Cytotoxicity CC50; replicon cells 2209-23, three days incubation, WST-1 OD 450 nm. On the technique in general: Tetrazolium assays rely on reduction of a dye to a coloured formazan, in cell work by metabolically active cells.
Where [3] appears, read: Hepatitis C virus, Huh-7, 72 h, Huh7 replicon cells 2209-23, three days incubation, Renilla luciferase readout.
Where [4] appears, read: Huh7 replicon cells 2209-23, three days incubation, Renilla luciferase readout.

Structures are written as SMILES. pIC50: −log10 of the molar value. Read-outs that look alike come from different tables or passages of the source.

Regarding `CC(C)OC(=O)[C@H](C)NP(=O)(OC[C@@]1(F)O[C@@H](n2ccc(=O)[nH]c2=O)[C@](C)(F)[C@@H]1O)Oc1ccccc1` (stereo partly drawn) [Compound I-1, (S)-2-{[(2S,3S,4R,5R)-5-(2,4-Dioxo-3,4-dihydro-2H-pyrimidin-1-yl)-2,4-difluoro-3-hydroxy-4-methyl-tetrahydro-furan-2-ylmethoxy]-phenoxy-phosphorylamino}-propionic acid isopropyl ester], the CC50 at 3 days in the series “in vitro” is above 100 µM.
Turning to `CC(C)OC(=O)[C@H](C)NP(=O)(OC[C@@]1(F)O[C@@H](n2ccc(=O)[nH]c2=O)[C@](C)(F)[C@@H]1O)Oc1cccc2ccccc12` (stereo partly drawn) [Compound I-2, (S)-2-[[(2S,3S,4R,5R)-5-(2,4-Dioxo-3,4-dihydro-2H-pyrimidin-1-yl)-2,4-difluoro-3-hydroxy-4-methyl-tetrahydro-furan-2-ylmethoxy]-(naphthalen-1-yloxy)-phosphorylamino]-propionic acid isopropyl ester], the pIC50 in series [1] (setting [3]) was 6.94. In the series “in vitro”, the CC50 at 3 days was above 100 µM.
In turn, `CC(C)OC(=O)[C@H](C)NP(=O)(OC[C@@]1(F)O[C@@H](n2ccc(=O)[nH]c2=O)[C@](C)(F)[C@@H]1O)Oc1ccc2ccccc2c1` (stereo partly drawn) [Compound I-3, (S)-2-[[(2S,3S,4R,5R)-5-(2,4-Dioxo-3,4-dihydro-2H-pyrimidin-1-yl)-2,4-difluoro-3-hydroxy-4-methyl-tetrahydro-furan-2-ylmethoxy]-(naphthalen-2-yloxy)-phosphorylamino]-propionic acid isopropyl ester] yielded a CC50 at 3 days in the series “in vitro” above 100 µM.
Turning to `CC(C)OC(=O)[C@H](C)NP(=O)(OC[C@@]1(F)O[C@@H](n2ccc(=O)[nH]c2=O)[C@](C)(F)[C@@H]1OP(=O)(N[C@@H](C)C(=O)OC(C)C)Oc1ccc2ccccc2c1)Oc1ccc2ccccc2c1` (stereo partly drawn) [Compound I-4, (S)-2-[[(2S,3S,4R,5R)-5-(2,4-dioxo-3,4-dihydro-2H-pyrimidin-1-yl)-2,4-difluoro-3-[((S)-1-isopropoxycarbonyl-ethylamino)-(naphthalen-2-yloxy)-phosphoryloxy]-4-methyl-tetrahydro-furan-2-ylmethoxy]-(naphthalen-2-yloxy)-phosphorylamino]-propionic acid isopropyl ester], the pIC50 in series [1] (Hepatitis C virus, Huh-7, 72 h) was 5.14. Also, the CC50 at 3 days in “in vitro” is above 100 µM.
`CCC(=O)O[C@H]1[C@@](C)(F)[C@H](n2ccc(=O)[nH]c2=O)O[C@]1(F)COP(=O)(N[C@@H](C)C(=O)OC(C)C)Oc1cccc2ccccc12` (stereo partly drawn) [Compound I-5, (S)-2-[[(2S,3S,4R,5R)-5-(2,4-Dioxo-3,4-dihydro-2H-pyrimidin-1-yl)-2,4-difluoro-4-methyl-3-propionyloxy-tetrahydro-furan-2-ylmethoxy]-(naphthalen-1-yloxy)-phosphorylamino]-propionic acid isopropyl ester]: in series [1] (setting [3]), the pIC50 was 6.82. In “in vitro”, this compound yielded a CC50 at 3 days of 67.8 µM.
For the compound `CC(C)OC(=O)[C@H](C)N[P@](=O)(OC[C@@]1(F)O[C@@H](n2ccc(=O)[nH]c2=O)[C@](C)(F)[C@@H]1O)Oc1ccc2ccccc2c1` [Compound I-6], the negative-log IC50 (pIC50) in series [1] (Hepatitis C virus, Huh-7, 72 h) is 7.27. Further, the CC50 at 3 days in “in vitro” was above 100 µM.
Regarding `CC(C)OC(=O)[C@H](C)N[P@@](=O)(OC[C@@]1(F)O[C@@H](n2ccc(=O)[nH]c2=O)[C@](C)(F)[C@@H]1O)Oc1ccc2ccccc2c1` [Compound I-7], the pIC50 in series [1] (setting [4]) was 6.70. The CC50 in series [2] was above 100 µM.
The corresponding values for `CC(C)OC(=O)[C@H](C)N[P@@](=O)(OC[C@@]1(F)O[C@@H](n2ccc(=O)[nH]c2=O)[C@](C)(F)[C@@H]1O)Oc1cccc2ccccc12` [Compound I-8, (S)-2-[(R)-[(2S,3S,4R,5R)-5-(2,4-Dioxo-3,4-dihydro-2H-pyrimidin-1-yl)-2,4-difluoro-3-hydroxy-4-methyl-tetrahydro-furan-2-ylmethoxy]-(naphthalen-1-yloxy)-phosphorylamino]-propionic acid isopropyl ester] are 5.99 and above 100 µM.
With `CC(C)OC(=O)[C@H](C)N[P@](=O)(OC[C@@]1(F)O[C@@H](n2ccc(=O)[nH]c2=O)[C@](C)(F)[C@@H]1O)Oc1cccc2ccccc12` [Compound I-9, (S)-2-[(S)-[(2S,3S,4R,5R)-5-(2,4-Dioxo-3,4-dihydro-2H-pyrimidin-1-yl)-2,4-difluoro-3-hydroxy-4-methyl-tetrahydro-furan-2-ylmethoxy]-(naphthalen-1-yloxy)-phosphorylamino]-propionic acid isopropyl ester], in series [1] (setting [3]), the pIC50 was 7.22. Also, in “in vitro”, the CC50 at 3 days was above 100 µM.
The corresponding values for `CC(C)OC(=O)[C@H](C)N[P@](=O)(OC[C@@]1(F)O[C@@H](n2ccc(=O)[nH]c2=O)[C@](C)(F)[C@@H]1O)Oc1ccccc1` [Compound I-10, (S)-2-{(S)-[(2S,3S,4R,5R)-5-(2,4-Dioxo-3,4-dihydro-2H-pyrimidin-1-yl)-2,4-difluoro-3-hydroxy-4-methyl-tetrahydro-furan-2-ylmethoxy]-phenoxy-phosphorylamino}-propionic acid isopropyl ester] are 6.77 and above 100 µM.
For `CC(C)OC(=O)[C@H](C)N[P@@](=O)(OC[C@@]1(F)O[C@@H](n2ccc(=O)[nH]c2=O)[C@](C)(F)[C@@H]1O)Oc1ccccc1` [Compound I-11, (S)-2-{(R)-[(2S,3S,4R,5R)-5-(2,4-Dioxo-3,4-dihydro-2H-pyrimidin-1-yl)-2,4-difluoro-3-hydroxy-4-methyl-tetrahydro-furan-2-ylmethoxy]-phenoxy-phosphorylamino}-propionic acid isopropyl ester], in that order: 5.88 and 95.6 µM.
The corresponding values for `CC(C)OC(=O)[C@H](C)N[P@](=O)(OC[C@@]1(F)O[C@@H](n2cc(Br)c(=O)[nH]c2=O)[C@](C)(F)[C@@H]1O)Oc1cccc2ccccc12` [Compound I-12, (S)-2-[(S)-[(2S,3S,4R,5R)-5-(5-Bromo-2,4-dioxo-3,4-dihydro-2H-pyrimidin-1-yl)-2,4-difluoro-3-hydroxy-4-methyl-tetrahydro-furan-2-ylmethoxy]-(naphthalen-1-yloxy)-phosphorylamino]-propionic acid isopropyl ester] are 4.76 and 34.8 µM.
In the case of `CC(C)OC(=O)[C@H](C)N[P@](=O)(OC[C@@]1(F)O[C@@H](n2cc(Br)c(=O)[nH]c2=O)[C@](C)(F)[C@@H]1O)Oc1ccc2ccccc2c1` [Compound I-13], the pIC50 in series [1] (Hepatitis C virus, Huh-7, 72 h) was 4.41. In the series “in vitro”, this compound yielded a CC50 at 3 days above 100 µM.
In the case of `CC(C)OC(=O)[C@H](C)N[P@@](=O)(OC[C@@]1(F)O[C@@H](n2cc(Br)c(=O)[nH]c2=O)[C@](C)(F)[C@@H]1O)Oc1cccc2ccccc12` [Compound I-14, (S)-2-[(R)-[(2S,3S,4R,5R)-5-(5-Bromo-2,4-dioxo-3,4-dihydro-2H-pyrimidin-1-yl)-2,4-difluoro-3-hydroxy-4-methyl-tetrahydro-furan-2-ylmethoxy]-(naphthalen-1-yloxy)-phosphorylamino]-propionic acid isopropyl ester], the pIC50 in series [1] (setting [4]) was 5.02. In series [2], the CC50 was 50.8 µM.
On to `CC(C)OC(=O)[C@H](C)N[P@@](=O)(OC[C@@]1(F)O[C@@H](n2cc(Br)c(=O)[nH]c2=O)[C@](C)(F)[C@@H]1O)Oc1ccc2ccccc2c1` [Compound I-15], for which the pIC50 in series [1] (setting [4]) is 4.88. In series [2], the CC50 worked out at 38.5 µM.
With `CC(C)OC(=O)[C@H](C)NP(=O)(OC[C@@]1(F)O[C@@H](n2cc(Br)c(=O)[nH]c2=O)[C@](C)(F)[C@@H]1O)Oc1ccc2ccccc2c1` (stereo partly drawn) [Compound I-16, (S)-2-[[(2S,3S,4R,5R)-5-(5-Bromo-2,4-dioxo-3,4-dihydro-2H-pyrimidin-1-yl)-2,4-difluoro-3-hydroxy-4-methyl-tetrahydro-furan-2-ylmethoxy]-(naphthalen-2-yloxy)-phosphorylamino]-propionic acid isopropyl ester], the pIC50 in series [1] (Hepatitis C virus, Huh-7, 72 h) was 4.11. The CC50 at 3 days in “in vitro” is above 100 µM.

One may read the pIC50 as −log10 of the IC50, conventionally taken in molar units.
